Reference: publication PMC10894092, “Characterization of a recombinant Aspergillus niger GZUF36 lipase immobilized by ionic liquid modification strategy” (Applied Microbiology and Biotechnology, 2024)

System: T1, PEXANL1
T1 construct: gene EXANL1; recombinant extracellular lipase, secreted/purified from Pichia pastoris GS115
Assay: p-nitrophenol release at […] nm, Lineweaver-Burk
Format: biochemical, Aspergillus niger
Conditions: free enzyme; pH 5.0, 45 °C; 5-30 mM substrate range; phosphate-citrate buffer, substrate stock in 2-propanol

Km: 2650 µM
Compound: CCCCCCCCCCCCCCCC(=O)Oc1ccc([N+](=O)[O-])cc1 [p-nitrophenyl palmitate]
